Results: ChEMBL document CHEMBL1128408, “Further evidence supporting the importance of and the restrictions on a carbon-centered radical for high antimalarial activity of 1,2,4-trioxanes like artemisinin” (J Med Chem, 1995)
Values after ≈ are worked out from the molar mass of the structure shown.

Tested on: Plasmodium falciparum
Test: In vitro inhibitory activity against Chloroquine-sensitive Plasmodium falciparum NF54 as [3H]hypoxanthine incorporation
Assay type: functional, organism-based
[1] = Plasmodium falciparum, read-out: IC50

Compound	IC50 [1] [µg/mL]	IC50 [µg/mL]
CO[C@H]1O[C@]2(C)OO[C@]13[C@H](CCO)CCC[C@@H]3C[C@H]2Cc1ccccc1	0.003 (≈ 0.00828 µM)	
C[C@@H]1CC[C@H]2[C@@H](C)C(=O)O[C@@H]3O[C@@]4(C)CC[C@@H]1[C@]32OO4 [ARTEMISININ]	0.003 (≈ 0.0106 µM)	
CO[C@H]1O[C@]2(C)OO[C@]13[C@H](CCO)CCC[C@@H]3C[C@@H]2C	0.36 (≈ 1.26 µM)	
CO[C@H]1O[C@@]2(C)CC[C@H]3CCCC[C@]31OO2	0.22 (≈ 0.964 µM)	
CO[C@H]1O[C@]2(C)OO[C@]13[C@H](CCO)CCC[C@@H]3C[C@H]2C	0.0022 (≈ 0.00768 µM)	
CO[C@H]1O[C@]2(C)OO[C@]13CCCC[C@@H]3C[C@H]2Cc1ccccc1	0.098 (≈ 0.308 µM)	
CO[C@H]1O[C@]2(C)OO[C@]13[C@H](CCO)CCC[C@@H]3C[C@@H]2Cc1ccccc1	0.6 (≈ 1.66 µM)	
CO[C@H]1O[C@]2(C)OO[C@]13CCCC[C@@H]3C[C@H]2c1ccccc1	0.61 (≈ 2 µM)	
CO[C@H]1O[C@]2(C)OO[C@]13[C@H](CCO)CCC[C@@H]3C[C@@H]2C[Si](C)(C)C	> 1	
CO[C@H]1O[C@@]2(C)CC[C@H]3CCC[C@@H](CCO)[C@]31OO2	0.034 (≈ 0.125 µM)	0.034 (≈ 0.125 µM)
CO[C@H]1O[C@]2(C)OO[C@]13[C@H](CCO)CCC[C@@H]3C[C@H]2C[Si](C)(C)C	0.086 (≈ 0.24 µM)	
